Reference: patent publication US12447153B2, “HER2 mutation inhibitors” (Array BioPharma Inc., priority 2021, dated 2025)

Assays:
ErbB2 WT = ErbB2 WT (Homo sapiens (Human), UniProt P04626); experiment: ErbB Enzyme Assay (HTRF KinEASE-TK), Assay 2; format: biochemical
EGFR = EGFR (Homo sapiens (Human), UniProt P00533); experiment: ErbB Enzyme Assay (HTRF KinEASE-TK), Assay 3; format: biochemical
[1] = biological target: ErbB2 with Exon 20 YVMA insertion (HER2-YVMA) (Homo sapiens (Human), UniProt P04626, INS775YVMA); experiment: Cellular Phosphorylation Assay, Assay 4 (constitutive ErbB2 phosphorylation, NIH 3T3 cells); format: cell-based
Sequence of ErbB2 with Exon 20 YVMA insertion (HER2-YVMA) (P04626 other isoform, or with tags, fused parts or gaps ins YVMA behind 775): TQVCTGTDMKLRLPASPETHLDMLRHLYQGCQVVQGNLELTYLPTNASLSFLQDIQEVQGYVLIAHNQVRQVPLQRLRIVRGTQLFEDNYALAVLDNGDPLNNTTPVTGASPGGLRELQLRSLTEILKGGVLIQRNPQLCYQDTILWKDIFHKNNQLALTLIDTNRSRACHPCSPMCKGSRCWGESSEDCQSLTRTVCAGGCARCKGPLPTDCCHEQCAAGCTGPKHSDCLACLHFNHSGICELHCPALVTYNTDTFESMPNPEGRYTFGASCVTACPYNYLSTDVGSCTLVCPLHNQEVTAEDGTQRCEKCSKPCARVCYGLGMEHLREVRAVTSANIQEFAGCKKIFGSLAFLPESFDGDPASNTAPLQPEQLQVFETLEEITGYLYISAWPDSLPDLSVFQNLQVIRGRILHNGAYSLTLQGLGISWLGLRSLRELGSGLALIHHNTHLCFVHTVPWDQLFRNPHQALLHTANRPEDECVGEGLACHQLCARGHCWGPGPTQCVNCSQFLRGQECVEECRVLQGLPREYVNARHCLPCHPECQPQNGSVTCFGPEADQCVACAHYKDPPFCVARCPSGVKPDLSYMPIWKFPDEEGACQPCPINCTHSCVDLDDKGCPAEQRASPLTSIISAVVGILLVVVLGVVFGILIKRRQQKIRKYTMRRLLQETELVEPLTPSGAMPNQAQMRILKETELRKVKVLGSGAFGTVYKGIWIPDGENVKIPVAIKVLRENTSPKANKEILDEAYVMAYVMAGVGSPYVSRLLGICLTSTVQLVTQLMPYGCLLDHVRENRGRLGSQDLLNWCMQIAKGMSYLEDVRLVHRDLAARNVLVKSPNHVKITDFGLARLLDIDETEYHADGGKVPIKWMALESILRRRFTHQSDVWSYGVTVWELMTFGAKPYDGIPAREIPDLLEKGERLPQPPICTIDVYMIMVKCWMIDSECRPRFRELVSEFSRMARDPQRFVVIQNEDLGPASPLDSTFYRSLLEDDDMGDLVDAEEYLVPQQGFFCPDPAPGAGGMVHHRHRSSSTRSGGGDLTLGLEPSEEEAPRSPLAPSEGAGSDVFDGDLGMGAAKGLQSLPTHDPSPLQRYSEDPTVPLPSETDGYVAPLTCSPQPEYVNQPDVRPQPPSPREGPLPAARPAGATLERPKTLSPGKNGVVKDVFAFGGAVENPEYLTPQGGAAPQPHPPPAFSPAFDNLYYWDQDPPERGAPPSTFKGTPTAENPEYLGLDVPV

EGFR wild type (EGFR WT) = EGFR wild type (EGFR WT) (Homo sapiens (Human), UniProt P00533); experiment: Cellular Phosphorylation Assay, Assay 5 (EGF-stimulated EGFR phosphorylation, NIH 3T3 cells); format: cell-based
Sequence of EGFR wild type (EGFR WT) (P00533 25-1210): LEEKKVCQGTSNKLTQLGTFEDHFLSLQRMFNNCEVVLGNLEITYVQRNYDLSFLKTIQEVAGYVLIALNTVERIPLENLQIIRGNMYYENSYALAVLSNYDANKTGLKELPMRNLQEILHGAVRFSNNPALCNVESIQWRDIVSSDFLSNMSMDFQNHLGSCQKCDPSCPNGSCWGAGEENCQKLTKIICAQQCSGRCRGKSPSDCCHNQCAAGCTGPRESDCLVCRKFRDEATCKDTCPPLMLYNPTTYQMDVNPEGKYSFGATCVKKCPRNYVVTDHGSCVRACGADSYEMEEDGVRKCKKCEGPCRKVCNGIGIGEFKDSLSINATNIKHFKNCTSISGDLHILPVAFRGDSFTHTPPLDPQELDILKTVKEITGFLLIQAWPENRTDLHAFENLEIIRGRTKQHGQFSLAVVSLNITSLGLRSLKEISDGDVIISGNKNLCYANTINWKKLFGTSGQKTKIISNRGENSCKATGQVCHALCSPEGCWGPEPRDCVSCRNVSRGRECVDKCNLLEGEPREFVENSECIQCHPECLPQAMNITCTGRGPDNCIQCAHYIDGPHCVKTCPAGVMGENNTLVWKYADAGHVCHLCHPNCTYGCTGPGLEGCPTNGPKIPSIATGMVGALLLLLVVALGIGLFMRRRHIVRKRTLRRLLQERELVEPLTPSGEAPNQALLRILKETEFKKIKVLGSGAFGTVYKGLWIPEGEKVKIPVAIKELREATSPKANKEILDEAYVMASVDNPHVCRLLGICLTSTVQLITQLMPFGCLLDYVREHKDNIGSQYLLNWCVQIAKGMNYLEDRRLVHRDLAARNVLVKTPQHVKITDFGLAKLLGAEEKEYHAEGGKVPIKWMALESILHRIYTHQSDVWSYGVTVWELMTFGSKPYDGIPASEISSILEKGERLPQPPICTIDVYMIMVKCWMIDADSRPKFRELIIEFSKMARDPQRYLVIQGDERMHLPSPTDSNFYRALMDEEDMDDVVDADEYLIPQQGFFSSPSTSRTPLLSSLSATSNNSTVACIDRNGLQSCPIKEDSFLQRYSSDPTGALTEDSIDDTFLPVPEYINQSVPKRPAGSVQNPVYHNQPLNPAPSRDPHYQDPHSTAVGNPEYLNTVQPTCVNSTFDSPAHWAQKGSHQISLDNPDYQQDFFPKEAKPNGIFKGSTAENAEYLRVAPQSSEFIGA

[2] = EGF-stimulated EGFR WT phosphorylation
[3] = cellular ErbB2 YVMA phosphorylation
[4] = cellular EGFR WT phosphorylation, EGF-stimulated

Sequence of EGFR (P00533 25-1210): as above
Sequence of ErbB2 WT (P04626 23-1255): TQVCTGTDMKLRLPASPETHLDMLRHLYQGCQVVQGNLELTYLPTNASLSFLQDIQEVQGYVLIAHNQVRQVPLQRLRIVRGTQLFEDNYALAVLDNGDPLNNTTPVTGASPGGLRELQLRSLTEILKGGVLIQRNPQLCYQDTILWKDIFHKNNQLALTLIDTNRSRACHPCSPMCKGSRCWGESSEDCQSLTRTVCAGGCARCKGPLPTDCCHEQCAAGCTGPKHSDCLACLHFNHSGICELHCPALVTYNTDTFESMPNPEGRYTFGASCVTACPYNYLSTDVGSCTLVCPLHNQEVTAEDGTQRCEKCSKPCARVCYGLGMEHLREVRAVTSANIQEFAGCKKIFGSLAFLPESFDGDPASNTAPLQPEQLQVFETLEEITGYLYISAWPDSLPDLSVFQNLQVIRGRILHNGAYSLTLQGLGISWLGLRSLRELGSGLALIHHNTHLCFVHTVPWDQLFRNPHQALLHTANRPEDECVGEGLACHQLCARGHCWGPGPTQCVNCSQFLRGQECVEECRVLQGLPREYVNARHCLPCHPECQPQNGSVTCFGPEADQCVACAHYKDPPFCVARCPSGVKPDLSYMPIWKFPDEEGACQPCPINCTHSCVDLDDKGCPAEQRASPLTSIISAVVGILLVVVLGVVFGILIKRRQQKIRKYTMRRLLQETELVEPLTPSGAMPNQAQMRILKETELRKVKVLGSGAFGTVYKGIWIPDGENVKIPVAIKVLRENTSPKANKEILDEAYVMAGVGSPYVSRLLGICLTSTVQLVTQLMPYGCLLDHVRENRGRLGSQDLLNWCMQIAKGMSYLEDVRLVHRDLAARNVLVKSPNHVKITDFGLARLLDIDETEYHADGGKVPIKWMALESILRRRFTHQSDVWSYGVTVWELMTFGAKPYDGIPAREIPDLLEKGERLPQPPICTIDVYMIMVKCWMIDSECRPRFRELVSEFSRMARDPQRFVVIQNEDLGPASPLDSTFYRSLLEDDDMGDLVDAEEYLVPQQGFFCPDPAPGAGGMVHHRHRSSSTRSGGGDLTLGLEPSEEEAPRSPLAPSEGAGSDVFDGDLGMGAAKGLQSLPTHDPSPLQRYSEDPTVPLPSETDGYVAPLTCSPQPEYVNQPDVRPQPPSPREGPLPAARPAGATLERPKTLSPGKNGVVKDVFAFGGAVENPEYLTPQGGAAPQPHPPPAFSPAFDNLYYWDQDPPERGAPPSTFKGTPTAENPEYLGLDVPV

| SMILES | IC50 (ErbB2 WT; ErbB2 WT enzyme) [nM] | IC50 (EGFR; EGFR enzyme) [nM] | IC50 ([1]; ErbB2 YVMA phosphorylation) [nM] | IC50 (EGFR wild type (EGFR WT); [2]) [nM] | IC50 (ErbB2 WT; ErbB2 WT enzyme assay) [nM] | IC50 (EGFR; EGFR enzyme assay) [nM] | IC50 [1, 3] [nM] | IC50 (EGFR wild type (EGFR WT); [4]) [nM] |
| --- | --- | --- | --- | --- | --- | --- | --- | --- |
| C=CC(=O)N1CCC(Sc2ccc3ncnc(Nc4ccc(Oc5ccn6ncnc6c5)c(Cl)c4F)c3n2)CC1 [Example 62, 1-(4-((4-((4-([1,2,4]triazolo[1,5-a]pyridin-7-yloxy)-3-chloro-2-fluorophenyl)amino)pyrido[3,2-d]pyrimidin-6-yl)thio)piperidin-1-yl)prop-2-en-1-one] | 15.3 | 333 | 28.1 | 639 | – | – | – | – |
| C=CC(=O)N1[C@H](C)CN(c2ccc3ncnc(Nc4ccc(Oc5ccc6c(c5)ncn6C)c(C)c4F)c3n2)C[C@H]1C [Example 255] | – | – | – | – | 795 | ≥ 10000 | 172 | ≥ 5000 |
| C=CC(=O)N1CC[C@H](c2ccc3ncnc(Nc4ccc(Oc5ccn6ncnc6c5)c(C)c4F)c3n2)CC12CC2 (single isomer, unassigned) [Example 174] | 23.8 | 736 | 7.9 | 270 | – | – | – | – |
| C=C(F)C(=O)N1[C@@H]2CC[C@H]1C[C@@H](c1ccc3ncnc(Nc4cc(C)c(Oc5ccn6ncnc6c5)cc4F)c3n1)C2 [Example 207, 1-((1R,3r,5S)-3-(4-((4-([1,2,4]triazolo[1,5-a]pyridin-7-yloxy)-2-fluoro-5-methylphenyl)amino)pyrido[3,2-d]pyrimidin-6-yl)-8-azabicyclo[3.2.1]octan-8-yl)-2-fluoroprop-2-en-1-one] | 150 | ≥ 10000 | 685 | ≥ 5000 | – | – | – | – |
| C=CC(=O)N1C[C@@H]2C[C@H](c3ccc4ncnc(Nc5ccc(Oc6ccc7c(c6)ncn7C)c(C)c5F)c4n3)C[C@H]1C2 [Example 389] | – | – | – | – | 20.4 | 277 | 31.1 | 685 |
| C=CC(=O)N1C[C@H](c2ccc3ncnc(Nc4ccc(Oc5ccn6ncnc6c5)c(C)c4F)c3n2)CC1(C)C (racemic) [Example 296] | – | – | – | – | 58.5 | 881 | 36.1 | 1440 |
| C=CC(=O)N1CCN(c2ccc3ncnc(Nc4ccc(Oc5cc(F)c6c(c5)ncn6C)c(C)c4)c3n2)C[C@@H]1C1CC1 (racemic) [Example 278] | – | – | – | – | 54.6 | 6630 | 18.1 | 1820 |
| C=CC(=O)N1CC[C@@H]2C[C@H]1CN2c1ccc2ncnc(Nc3cc(Cl)c(Oc4cnc5c(c4)ncn5C)cc3F)c2n1 [Example 456] | – | – | – | – | 711 | ≥ 10000 | 253 | ≥ 5000 |
| C=CC(=O)N1CCN(c2ccc3ncnc(Nc4ccc(Oc5ccn6ncnc6c5)c(C)c4F)c3n2)C[C@@H]1C1CCC1 (racemic) [Example 305] | – | – | – | – | 127 | 7970 | 66.1 | ≥ 5000 |
| Cc1c(Oc2ccn3ncnc3c2)ccc(Nc2ncnc3ccc(N4C[C@@H]5CCN(C(=O)C67CC6C7)[C@@H]5C4)nc23)c1F (stereo partly drawn) [Example 27, ((3aS,6aS)-5-(4-((4-([1,2,4]triazolo[1,5-a]pyridin-7-yloxy)-2-fluoro-3-methylphenyl)amino)pyrido[3,2-d]pyrimidin-6-yl)hexahydropyrrolo[3,4-b]pyrrol-1(2H)-yl)(bicyclo[1.1.0]butan-1-yl)methanone] | 486 | ≥ 10000 | 381 | ≥ 5000 | – | – | – | – |
| C=CC(=O)N1CC(c2ccc3ncnc(Nc4ccc(Oc5ccc6c(c5)ncn6C)c(C)c4F)c3n2)CCC12CC2 (stereo not drawn) [Example 197, 1-(6-(4-((2-fluoro-3-methyl-4-((1-methyl-1H-benzo[d]imidazol-5-yl)oxy)phenyl)amino)pyrido[3,2-d]pyrimidin-6-yl)-4-azaspiro[2.5]octan-4-yl)prop-2-en-1-one] | 21.1 | 650 | 35.2 | 853 | – | – | – | – |
| C=CC(=O)N1C2CC1CN(c1ccc3ncnc(Nc4ccc(Oc5cnc6c(c5)ncn6C)c(C)c4F)c3n1)C2 [Example 438] | – | – | – | – | 352 | ≥ 10000 | 9.8 | ≥ 5000 |
| C=CC(=O)N1[C@H](C)CN(c2ccc3ncnc(Nc4ccc(Oc5ccc6c(c5)ncn6C)c(C)c4F)c3n2)C[C@@H]1C [Example 115, 1-((2S,6R)-4-(4-((2-fluoro-3-methyl-4-((1-methyl-1H-benzo[d]imidazol-5-yl)oxy)phenyl)amino)pyrido[3,2-d]pyrimidin-6-yl)-2,6-dimethylpiperazin-1-yl)prop-2-en-1-one] | 55.4 | ≥ 10000 | 82.8 | ≥ 5000 | – | – | – | – |
| C=CC(=O)N1CCCC[C@@H](c2ccc3ncnc(Nc4ccc(Oc5ccc6c(c5)ncn6C)c(C)c4)c3n2)C1 (single isomer, unassigned) [Example 171] | 13.4 | ≥ 10000 | 26.3 | ≥ 5000 | – | – | – | – |
| C=CC(=O)N1CC[C@@H]2C[C@H]1CN2c1ccc2ncnc(Nc3ccc(Oc4ccc5c(c4)ncn5C)c(C)c3F)c2n1 [Example 29, 1-((1 S,5R)-6-(4-((2-fluoro-3-methyl-4-((1-methyl-1H-benzo[d]imidazol-5-yl)oxy)phenyl)amino)pyrido[3,2-d]pyrimidin-6-yl)-2,6-diazabicyclo[3.2.1]octan-2-yl)prop-2-en-1-one] | 36.5 | 311 | 5.8 | 118 | – | – | – | – |
| C=CC(=O)N1CC[C@@H]2CN(c3nc4c(Nc5ccc(Oc6ccn7ncnc7c6)c(C)c5F)ncnc4cc3OC)C[C@@H]21 [Example 154, 1-((3aR,6aR)-5-(4-((4-([1,2,4]triazolo[1,5-a]pyridin-7-yloxy)-2-fluoro-3-methylphenyl)amino)-7-methoxypyrido[3,2-d]pyrimidin-6-yl)hexahydropyrrolo[3,4-d]pyrrol-1(2H)-yl)prop-2-en-1-one] | 18 | 447 | 67.8 | 3070 | – | – | – | – |
| C=C(F)C(=O)N1CCN(c2ccc3ncnc(Nc4ccc(Oc5ccn6ncnc6c5)c(C)c4F)c3n2)CC1 [Example 185, 1-(4-(4-((4-([1,2,4]triazolo[1,5-a]pyridin-7-yloxy)-2-fluoro-3-methylphenyl)amino)pyrido[3,2-d]pyrimidin-6-yl)piperazin-1-yl)-2-fluoroprop-2-en-1-one] | 128 | ≥ 10000 | 315 | ≥ 5000 | – | – | – | – |
| C=CC(=O)N1CCCC(c2ccc3ncnc(Nc4cc(Cl)c(Oc5ccn6ncnc6c5)cc4F)c3n2)CC1 (stereo not drawn) [Example 400] | – | – | – | – | 16 | 3240 | 45.6 | ≥ 5000 |
| C=CC(=O)N1CC[C@H](c2ccc3ncnc(Nc4ccc(Oc5cc(F)c6c(c5)ncn6C)c(C)c4)c3n2)CC1(C)C (racemic) [Example 279] | – | – | – | – | 145 | ≥ 10000 | 62.1 | ≥ 5000 |
| C=CC(=O)N1CCN(c2ccc3ncnc(Nc4ccc(Oc5ccn6ncnc6c5)c(Cl)c4F)c3n2)C[C@H]1COC [Example 344] | – | – | – | – | 7.7 | 88.4 | 3.4 | 46.8 |
| C=CC(=O)N1C[C@H]2C[C@@H]1[C@H](c1ccc3ncnc(Nc4ccc(Oc5cnc6c(c5)ncn6C)c(C)c4F)c3n1)C2 [Example 418] | – | – | – | – | 119 | 5600 | 33.6 | ≥ 5000 |
| C=CC(=O)N1C[C@@H]2C[C@H]1CN(c1ccc3ncnc(Nc4cc(C)c(Oc5ccc6c(c5)ncn6C)cc4F)c3n1)C2 [Example 102, 1-((1R,5S)-3-(4-((2-fluoro-5-methyl-4-((1-methyl-1H-benzo[d]imidazol-5-yl)oxy)phenyl)amino)pyrido[3,2-d]pyrimidin-6-yl)-3,6-diazabicyclo[3.2.1]octan-6-yl)prop-2-en-1-one] | 461 | ≥ 10000 | 15.4 | ≥ 5000 | – | – | – | – |
| C=CC(=O)N1C[C@@H]2C[C@H]1CN2c1ccc2ncnc(Nc3ccc(Oc4ccn5ncnc5c4)c(Cl)c3F)c2n1 [Example 93, 1-((1S,4S)-5-(4-((4-([1,2,4]triazolo[1,5-a]pyridin-7-yloxy)-3-chloro-2-fluorophenyl)amino)pyrido[3,2-d]pyrimidin-6-yl)-2,5-diazabicyclo[2.2.1]heptan-2-yl)prop-2-en-1-one] | 12.6 | 137 | 3.7 | 53.5 | – | – | – | – |
| C=CC(=O)N1C[C@@H]2C[C@H]1CC[C@@H]2c1ccc2ncnc(Nc3ccc(Oc4ccn5ncnc5c4)c(C)c3F)c2n1 [Example 381] | – | – | – | – | 28.9 | 1720 | 67.3 | 2640 |
| CC#CC(=O)N1CCN(c2ccc3ncnc(Nc4ccc(Oc5ccn6ncnc6c5)c(Cl)c4F)c3n2)CC12CC2 [Example 181, 1-(7-(4-((4-([1,2,4]triazolo[1,5-a]pyridin-7-yloxy)-3-chloro-2-fluorophenyl)amino)pyrido[3,2-d]pyrimidin-6-yl)-4,7-diazaspiro[2.5]octan-4-yl)but-2-yn-1-one] | 11.7 | 553 | 35.3 | 879 | – | – | – | – |
| CC#CC(=O)N1C2CCC1CN(c1ccc3ncnc(Nc4ccc(Oc5ccn6ncnc6c5)c(C)c4F)c3n1)C2 [Example 240, 1-(3-(4-((4-([1,2,4]triazolo[1,5-a]pyridin-7-yloxy)-2-fluoro-3-methylphenyl)amino)pyrido[3,2-d]pyrimidin-6-yl)-3,8-diazabicyclo[3.2.1]octan-8-yl)but-2-yn-1-one] | 143 | 4900 | 92.4 | 2020 | – | – | – | – |
| CC#CC(=O)N1CCC12CN(c1ccc3ncnc(Nc4cc(C)c(Oc5ccn6ncnc6c5)cc4F)c3n1)C2 [Example 188, 1-(6-(4-((4-([1,2,4]triazolo[1,5-a]pyridin-7-yloxy)-2-fluoro-5-methylphenyl)amino)pyrido[3,2-d]pyrimidin-6-yl)-1,6-diazaspiro[3.3]heptan-1-yl)but-2-yn-1-one] | 1450 | ≥ 10000 | 2020 | ≥ 5000 | – | – | – | – |
